# Molecular target: leucine aminopeptidase (LAP), pepA (Burkholderia pseudomallei, UniProt Q63WC3)
# Experiment: biochemical
# Details: read-out: Relative activity (%)
# Sequence of leucine aminopeptidase (LAP), pepA (Q63WC3 whole entry, looked up): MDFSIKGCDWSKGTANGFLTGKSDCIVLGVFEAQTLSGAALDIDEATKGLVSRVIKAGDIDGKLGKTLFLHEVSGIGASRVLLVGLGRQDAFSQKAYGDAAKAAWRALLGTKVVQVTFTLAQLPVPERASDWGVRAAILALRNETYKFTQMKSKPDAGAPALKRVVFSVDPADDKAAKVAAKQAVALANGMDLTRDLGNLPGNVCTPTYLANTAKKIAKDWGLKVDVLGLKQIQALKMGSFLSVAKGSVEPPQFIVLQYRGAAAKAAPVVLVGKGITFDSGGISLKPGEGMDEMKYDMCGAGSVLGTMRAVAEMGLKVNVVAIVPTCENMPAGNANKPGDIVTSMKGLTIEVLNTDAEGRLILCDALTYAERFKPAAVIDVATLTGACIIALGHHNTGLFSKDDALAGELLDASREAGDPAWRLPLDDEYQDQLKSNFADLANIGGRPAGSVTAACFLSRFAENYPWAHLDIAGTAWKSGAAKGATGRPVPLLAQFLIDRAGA
smiles,measurement,value
CC(C)C[C@@H](N)[C@H](O)C(=O)N[C@H](C(=O)N[C@H](C(=O)N[C@@H](CC(=O)O)C(=O)O)C(C)C)C(C)C [amastatin],activity at 2000 µM,0%

# — article PMC3680066 (BMC Microbiology, 2013)
